Assay results from patent US20150037394A1, “DRUG DELIVERY FORMULATIONS” (King's College London, priority 2011, published 2015).
Where a name gives a salt, the structure may show the parent alone.

Experiments:
[1] = Visually determined saturated solubility in various solvents; assay type: physicochemical
Method: The solubility experiments were performed by weighing 0.5±0.05 g of each excipient into glass vials (28 mL). The API (5.0±0.5 mg) was weighed by difference on a plastic weigh boat and transferred into the corresponding vial. […] Once saturation was achieved the mg/g API to solvent ratio was recorded.

[2] = http://www.drugbank.ca/; cited from earlier work
[3] = after 15 minutes exposure to an infrared bulb; cited from earlier work
[4] = literature sources; sildenafil base value marked experimentally determined; cited from earlier work

SMILES | Visually determined saturated solubility ([1]; Solvent Arlasolve DMI) [mg/g] | Visually determined saturated solubility ([1]; Solvent Diethyl Ether) [mg/g] | Visually determined saturated solubility ([1]; Solvent EtOH) [mg/g] | Visually determined saturated solubility ([1]; Solvent IPA) [mg/g] | Visually determined saturated solubility ([1]; Solvent Isoamyl Alcohol) [mg/g] | Visually determined saturated solubility ([1]; Solvent MeOH) [mg/g] | Visually determined saturated solubility ([1]; Solvent PEG-400) [mg/g] | Visually determined saturated solubility ([1]; Solvent PG) [mg/g] | Visually determined saturated solubility ([1]; Solvent Phenoxyethanol) [mg/g] | Visually determined saturated solubility ([1]; Solvent Transcutol P) [mg/g] | Log P [2] | Fold increase in permeation [3] | mg/ml figure listed among physicochemical properties (solubility) [4] [mg/mL]
CCCc1nn(C)c2c(=O)[nH]c(-c3cc(S(=O)(=O)N4CCN(C)CC4)ccc3OCC)nc12 [Sildenafil citrate] | <0.88 | <0.90 | 0.54 to 1.06 | <1.27 | <0.45 | 6.60 to 10.02 | 3.85 to 6.32 | 1.90 to 2.86 | 6.56 to 9.88 | 2.14 to 2.85 | – | – | –
Nc1nc2c(ncn2COCCO)c(=O)[nH]1 [Acyclovir] | <0.29 | <0.54 | <0.35 | <0.34 | <0.31 | 0.29 to 0.62 | 0.799 to 1.07 | 1.66 to 2.39 | 0.54 to 1.08 | <0.30 | −1.56 | – | –
O=C(O)Cc1ccccc1Nc1c(Cl)cccc1Cl [Diclofenac free acid] | 57.90 to 110.45 | 21.28 to 49.89 | 31.60 to 62.79 | 29.97 to 58.09 | 34.25 to 53.55 | 34.43 to 68.06 | 28.83 to 51.73 | 10.15 to 20.50 | 34.32 to 81.12 | 108.73 to 162.17 | – | – | –
O=[N+]([O-])OCC(CO[N+](=O)[O-])O[N+](=O)[O-] [nitroglycerin] | – | – | – | – | – | – | – | – | – | – | – | 2-3 fold | –
CCCc1nn(C)c2c(=O)[nH]c(-c3cc(S(=O)(=O)N4CCN(C)CC4)ccc3OCC)nc12 [Sildenafil base] | – | – | – | – | – | – | – | – | – | – | – | – | < 0.83
O=C(O)Cc1ccccc1Nc1c(Cl)cccc1Cl [Diclofenac diethyl amine] | – | – | – | – | – | – | – | – | – | – | – | – | 4.1
